Measured values reported in patent publication US10420341B2, “Herbicidal phenylpyrimidines” (BASF SE, priority 2015, dated 2019).

Columns and labels:
APESV = test: greenhouse pre-emergence herbicidal test; assay type: in vivo, Apera spica-venti; settings: pre-emergence method, scale from 0 to 100
In short: (§1)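 Rated on a 0 (normal growth) to 100 (no emergence/total aerial kill) scale over a 2-4 week test period. Aqueous suspensions or emulsions applied by fine nozzles right after sowing, then plants held under hoods at 10-25 °C or 20-35 °C depending on species.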

ECHCG [1] = test: greenhouse pre-emergence herbicidal test; assay type: in vivo, Echinocloa crus-galli; settings: pre-emergence method, scale from 0 to 100
In short: as §1

ECHCG [2] = test: greenhouse post-emergence herbicidal test; assay type: in vivo, Echinocloa crus-galli; settings: post-emergence method, scale from 0 to 100
In short: (§2)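 Scoring 0 (no damage) to 100 (no emergence or total destruction of aerial parts), taken over a 2 to 4 week period after post-emergence treatment at 3 to 15 cm plant height. Compounds applied as aqueous suspension or emulsion; greenhouse temperature 10-25° C. or 20-35° C. depending on species.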

POLCO = test: greenhouse post-emergence herbicidal test; assay type: in vivo, Polygonum convolvulus; settings: post-emergence method, scale from 0 to 100
From the text: (§3) The seeds of the test plants were sown separately for each species. For the post-emergence treatment, the test plants were first grown to a height of 3 to 15 cm, depending on the plant habit, and only then treated with the active ingredients which had been suspended or emulsified in water. For this purpose, the test plants were either sown directly and grown in the same containers, or they were first grown separately as seedlings and transplanted into the test containers a few days prior to treatment. Depending on the species, the plants were kept at 10-25° C. or 20-35° C., respectively. The test period extended over 2 to 4 weeks. During this time, the plants were tended, and their response to the individual treatments was evaluated. Evaluation was carried out using a scale from 0 to 100. 100 means no emergence of the plants, or complete destruction of at least the aerial moieties, and 0 means no damage, or normal course of growth. […] The plants used in the greenhouse experiments were of the following species: [table]

AVEFA = test: greenhouse post-emergence herbicidal test; assay type: in vivo, Avena fatua; settings: post-emergence method, application rate 500 g/ha, scale from 0 to 100
In short: as §2

ALOMY = test: greenhouse post-emergence herbicidal test; assay type: in vivo, Alopercurus myosuroides; settings: post-emergence method, scale from 0 to 100
In short: as §2

AMARE = test: greenhouse post-emergence herbicidal test; assay type: in vivo, Amaranthus retroflexus; settings: post-emergence method, scale from 0 to 100
From the text: as §3

## Cc1ccccc1-c1cnc(C(C)C)nc1C(=O)O [example 33]
APESV; application rate 500 g/ha
  herbicidal activity against APESV: very good (a very good herbicidal activity is given at values of at least 85)
ECHCG [1]; application rate 500 g/ha
  herbicidal activity against ECHCG: very good (a very good herbicidal activity is given at values of at least 85)
ECHCG [2]; application rate 500 g/ha
  herbicidal activity against ECHCG: good (A good herbicidal activity is given at values of at least 70)
POLCO; application rate 500 g/ha
  herbicidal activity against POLCO: good (A good herbicidal activity is given at values of at least 70)

## COc1ncc(-c2ccccc2Cl)c(C(=O)O)n1 [example 51]
APESV; application rate 500 g/ha
  herbicidal activity against APESV: very good (a very good herbicidal activity is given at values of at least 85)
ECHCG [1]; application rate 500 g/ha
  herbicidal activity against ECHCG: very good (a very good herbicidal activity is given at values of at least 85)
AVEFA
  herbicidal activity against AVEFA: good (A good herbicidal activity is given at values of at least 70)
ECHCG [2]; application rate 500 g/ha
  herbicidal activity against ECHCG: good (A good herbicidal activity is given at values of at least 70)
POLCO; application rate 500 g/ha
  herbicidal activity against POLCO: very good (a very good herbicidal activity is given at values of at least 85)

## COC(=O)c1nc(OC)ncc1-c1ccccc1Cl [example 61]
APESV; application rate 500 g/ha
  herbicidal activity against APESV: very good (a very good herbicidal activity is given at values of at least 85)
ECHCG [1]; application rate 500 g/ha
  herbicidal activity against ECHCG: very good (a very good herbicidal activity is given at values of at least 85)
ALOMY; application rate 500 g/ha
  herbicidal activity against ALOMY: good (A good herbicidal activity is given at values of at least 70)
ECHCG [2]; application rate 500 g/ha
  herbicidal activity against ECHCG: good (A good herbicidal activity is given at values of at least 70)
POLCO; application rate 500 g/ha
  herbicidal activity against POLCO: very good (a very good herbicidal activity is given at values of at least 85)

## CCOc1ncc(-c2ccccc2C)c(C(=O)O)n1 [example 67]
APESV; application rate 500 g/ha
  herbicidal activity against APESV: very good (a very good herbicidal activity is given at values of at least 85)
ECHCG [1]; application rate 500 g/ha
  herbicidal activity against ECHCG: good (A good herbicidal activity is given at values of at least 70)
ECHCG [2]; application rate 500 g/ha
  herbicidal activity against ECHCG: good (A good herbicidal activity is given at values of at least 70)
POLCO; application rate 500 g/ha
  herbicidal activity against POLCO: very good (a very good herbicidal activity is given at values of at least 85)

## CCOc1ncc(-c2cc(C)ccc2C)c(C(=O)O)n1 [example 68]
APESV; application rate 500 g/ha
  herbicidal activity against APESV: very good (a very good herbicidal activity is given at values of at least 85)
ECHCG [1]; application rate 500 g/ha
  herbicidal activity against ECHCG: very good (a very good herbicidal activity is given at values of at least 85)
ECHCG [2]; application rate 500 g/ha
  herbicidal activity against ECHCG: good (A good herbicidal activity is given at values of at least 70)
POLCO; application rate 500 g/ha
  herbicidal activity against POLCO: very good (a very good herbicidal activity is given at values of at least 85)

## O=C(O)c1nc(C2CC2)ncc1-c1cc(Cl)ccc1Cl [example 143]
APESV; application rate 500 g/ha
  herbicidal activity against APESV: very good (a very good herbicidal activity is given at values of at least 85)
ECHCG [1]; application rate 500 g/ha
  herbicidal activity against ECHCG: very good (a very good herbicidal activity is given at values of at least 85)
ECHCG [2]; application rate 500 g/ha
  herbicidal activity against ECHCG: good (A good herbicidal activity is given at values of at least 70)
POLCO; application rate 500 g/ha
  herbicidal activity against POLCO: very good (a very good herbicidal activity is given at values of at least 85)

## COc1ccc(Cl)c(-c2cnc(C3CC3)nc2C(=O)O)c1 [example 145]
APESV; application rate 500 g/ha
  herbicidal activity against APESV: very good (a very good herbicidal activity is given at values of at least 85)
ECHCG [1]; application rate 500 g/ha
  herbicidal activity against ECHCG: very good (a very good herbicidal activity is given at values of at least 85)
ECHCG [2]; application rate 500 g/ha
  herbicidal activity against ECHCG: very good (a very good herbicidal activity is given at values of at least 85)
POLCO; application rate 500 g/ha
  herbicidal activity against POLCO: very good (a very good herbicidal activity is given at values of at least 85)

## O=C(O)c1nc(C2CC2)ncc1-c1c(F)cc(Cl)cc1Cl [example 148]
APESV; application rate 250 g/ha
  herbicidal activity against APESV: very good (a very good herbicidal activity is given at values of at least 85)
ALOMY; application rate 250 g/ha
  herbicidal activity against ALOMY: very good (a very good herbicidal activity is given at values of at least 85)
POLCO; application rate 250 g/ha
  herbicidal activity against POLCO: very good (a very good herbicidal activity is given at values of at least 85)

## Cc1cc(-c2cnc(C3CC3)nc2C(=O)O)c(C)cc1F [example 167]
APESV; application rate 100 g/ha
  herbicidal activity against APESV: very good (a very good herbicidal activity is given at values of at least 85)
ECHCG [1]; application rate 100 g/ha
  herbicidal activity against ECHCG: very good (a very good herbicidal activity is given at values of at least 85)
AMARE; application rate 100 g/ha
  herbicidal activity against AMARE: good (A good herbicidal activity is given at values of at least 70)
ECHCG [2]; application rate 100 g/ha
  herbicidal activity against ECHCG: very good (a very good herbicidal activity is given at values of at least 85)

## Cc1ccc(-c2cnc(C3CC3)nc2C(=O)O)c(C)c1 [example 168]
APESV; application rate 500 g/ha
  herbicidal activity against APESV: very good (a very good herbicidal activity is given at values of at least 85)
ECHCG [1]; application rate 500 g/ha
  herbicidal activity against ECHCG: very good (a very good herbicidal activity is given at values of at least 85)
ALOMY; application rate 500 g/ha
  herbicidal activity against ALOMY: good (A good herbicidal activity is given at values of at least 70)
POLCO; application rate 500 g/ha
  herbicidal activity against POLCO: very good (a very good herbicidal activity is given at values of at least 85)

## CCc1ccccc1-c1cnc(C2CC2)nc1C(=O)O [example 174]
APESV; application rate 500 g/ha
  herbicidal activity against APESV: very good (a very good herbicidal activity is given at values of at least 85)
ECHCG [1]; application rate 500 g/ha
  herbicidal activity against ECHCG: very good (a very good herbicidal activity is given at values of at least 85)
AMARE; application rate 500 g/ha
  herbicidal activity against AMARE: very good (a very good herbicidal activity is given at values of at least 85)
ECHCG [2]; application rate 500 g/ha
  herbicidal activity against ECHCG: very good (a very good herbicidal activity is given at values of at least 85)

## O=C(O)c1nc(C2CC2)ncc1-c1ccccc1OC(F)F [example 181]
APESV; application rate 500 g/ha
  herbicidal activity against APESV: very good (a very good herbicidal activity is given at values of at least 85)
ECHCG [1]; application rate 500 g/ha
  herbicidal activity against ECHCG: very good (a very good herbicidal activity is given at values of at least 85)
ECHCG [2]; application rate 500 g/ha
  herbicidal activity against ECHCG: good (A good herbicidal activity is given at values of at least 70)
POLCO; application rate 500 g/ha
  herbicidal activity against POLCO: very good (a very good herbicidal activity is given at values of at least 85)

## COC(=O)c1nc(C2CC2)ncc1-c1cccc(F)c1Cl [example 210]
APESV; application rate 500 g/ha
  herbicidal activity against APESV: very good (a very good herbicidal activity is given at values of at least 85)
ECHCG [1]; application rate 500 g/ha
  herbicidal activity against ECHCG: very good (a very good herbicidal activity is given at values of at least 85)
ECHCG [2]; application rate 500 g/ha
  herbicidal activity against ECHCG: very good (a very good herbicidal activity is given at values of at least 85)
POLCO; application rate 500 g/ha
  herbicidal activity against POLCO: very good (a very good herbicidal activity is given at values of at least 85)

## COC(=O)c1nc(C2CC2)ncc1-c1cccc(Cl)c1Cl [example 211]
ALOMY; application rate 1000 g/ha
  herbicidal activity against ALOMY: very good (a very good herbicidal activity is given at values of at least 85)
AMARE; application rate 1000 g/ha
  herbicidal activity against AMARE: very good (a very good herbicidal activity is given at values of at least 85)

## COC(=O)c1nc(C2CC2)ncc1-c1c(C)cccc1C [example 225]
APESV; application rate 500 g/ha
  herbicidal activity against APESV: very good (a very good herbicidal activity is given at values of at least 85)
ECHCG [1]; application rate 500 g/ha
  herbicidal activity against ECHCG: very good (a very good herbicidal activity is given at values of at least 85)
ECHCG [2]; application rate 500 g/ha
  herbicidal activity against ECHCG: good (A good herbicidal activity is given at values of at least 70)
POLCO; application rate 500 g/ha
  herbicidal activity against POLCO: very good (a very good herbicidal activity is given at values of at least 85)

## COC(=O)CSC(=O)c1nc(C2CC2)ncc1-c1ccccc1Cl [example 278]
APESV; application rate 500 g/ha
  herbicidal activity against APESV: very good (a very good herbicidal activity is given at values of at least 85)
ECHCG [1]; application rate 500 g/ha
  herbicidal activity against ECHCG: very good (a very good herbicidal activity is given at values of at least 85)
POLCO; application rate 500 g/ha
  herbicidal activity against POLCO: very good (a very good herbicidal activity is given at values of at least 85)

## CC(C)(C)SC(=O)c1nc(C2CC2)ncc1-c1ccccc1Cl [example 281]
APESV; application rate 500 g/ha
  herbicidal activity against APESV: very good (a very good herbicidal activity is given at values of at least 85)
ALOMY; application rate 500 g/ha
  herbicidal activity against ALOMY: very good (a very good herbicidal activity is given at values of at least 85)
POLCO; application rate 500 g/ha
  herbicidal activity against POLCO: very good (a very good herbicidal activity is given at values of at least 85)
